Measurements from patent US12331054B2, “Perk inhibiting imidazolopyrazine compounds” (HiberCell, Inc., priority 2019, dated 2025).

Columns and labels:
[1] = molecular target: Recombinant human EIF2AK3 (PERK) catalytic domain (amino acids 536-1116) (Homo sapiens (Human), UniProt Q9NZJ5); assay: PERK In Vitro Activity Assay (isolated), TR-FRET kinase assay; settings: isolated PERK enzyme, 1.5 μM ATP, read-out: Biochemical IC50
Method in brief: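 Recombinant PERK catalytic domain was incubated with 100–200 nM GFP-eIF2a substrate in 50 mM HEPES pH 7.5, 10 mM MgCl2, 1.0 mM EGTA and 0.01% Brij-35 for 45 min at room temperature. After a 10 mM EDTA stop, 2 nM Tb-anti-phospho-eIF2a was added for 90 min, and IC50 was fitted from TR-FRET ratios by 4-parameter logistic regression.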

[2] = test system: eIF2α in HEK293-EGFP-eIF2α cells; assay: PERK Cellular Assay (HEK293-EGFP-eIF2α cells, tunicamycin-induced ER stress, TR-FRET); format: cell-based; settings: tunicamycin 2 hours
Method in brief: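 Cells pre-incubated with inhibitor 30 min at 37 °C, then ER stress induced with […] tunicamycin for 2 h. TR-FRET read on lysates; ratio normalized to DMSO control as percent inhibition over a 10-point, 3-fold dilution series; IC50 from 4-parameter logistic fit.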

Recombinant human EIF2AK3 (PERK) catalytic domain (amino acids 536-1116), sequence (Q9NZJ5 536-1116): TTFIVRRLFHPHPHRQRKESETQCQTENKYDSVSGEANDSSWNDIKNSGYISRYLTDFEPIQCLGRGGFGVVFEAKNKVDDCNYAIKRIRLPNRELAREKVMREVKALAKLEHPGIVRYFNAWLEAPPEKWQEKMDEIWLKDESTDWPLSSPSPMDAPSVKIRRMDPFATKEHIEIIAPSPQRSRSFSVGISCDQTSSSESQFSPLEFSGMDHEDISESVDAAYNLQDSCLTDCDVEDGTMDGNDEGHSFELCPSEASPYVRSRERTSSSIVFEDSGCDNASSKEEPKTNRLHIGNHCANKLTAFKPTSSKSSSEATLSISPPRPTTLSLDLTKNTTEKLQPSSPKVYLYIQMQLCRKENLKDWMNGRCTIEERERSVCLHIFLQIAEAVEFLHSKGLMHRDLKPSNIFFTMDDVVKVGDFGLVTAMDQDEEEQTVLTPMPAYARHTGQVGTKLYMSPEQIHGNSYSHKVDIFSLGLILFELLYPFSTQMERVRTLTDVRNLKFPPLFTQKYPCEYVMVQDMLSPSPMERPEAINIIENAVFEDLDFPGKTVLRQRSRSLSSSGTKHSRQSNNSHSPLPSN

IC50 [1] [nM] | Compound | IC50 [2] [nM] | IC50 ([2]; 2 h) [nM]
1 to 25 | Cc1cnc(N)c2c(-c3ccc(NC(=O)C(O)c4cccc(C(F)(F)F)c4)cc3F)nc(C)n12 (stereo not shown) [Example 93, N-(4-(8-amino-3,5-dimethylimidazo [1,5-a]pyrazin-1-yl)-3-fluoro-phenyl)-2-hydroxy-2-(3-(trifluoromethyl)phenyl)acetamide] | 51 to 100 | 
1 to 25 | [2H]C([2H])([2H])c1nc(-c2ccc(NC(=O)C(O)c3cccc(C(F)(F)F)c3)cc2F)c2c(N)ncc(C)n12 (stereo not shown) [Example 94, N-[4-[8-amino-5-methyl-3-(trideuteriomethyl)imidazo[1,5-a]pyrazin-1-yl]-3-fluoro-phenyl]-2-hydroxy-2-[3-(trifluoromethyl)phenyl]acetamide] | 1 to 25 | 
1 to 25 | [2H]C([2H])([2H])c1nc(-c2ccc(NC(=O)C(O)c3cccc(C(F)(F)F)c3)cc2F)c2c(N)ncc(C)n12 (stereo not shown) [Example 95, N-[4-[8-amino-5-methyl-3-(trideuteriomethyl)imidazo[1,5-a]pyrazin-1-yl]-3-fluoro-phenyl]-2-hydroxy-2-[3-(trifluoromethyl)phenyl]acetamide] | 51 to 100 | 
1 to 25 | [2H]C([2H])([2H])c1nc(-c2ccc(NC(=O)C(O)c3cccc(C(F)(F)F)c3)cc2F)c2c(N)nc(C)cn12 (stereo not shown) [Example 96, N-[4-[8-amino-6-methyl-3-(trideuteriomethyl)imidazo[1,5-a]pyrazin-1-yl]-3-fluoro-phenyl]-2-hydroxy-2-[3-(trifluoromethyl)phenyl]acetamide] | 1 to 25 | 
1 to 25 | [2H]C([2H])([2H])c1nc(-c2ccc(NC(=O)C(O)c3cccc(C(F)(F)F)c3)cc2F)c2c(N)ncc(C(F)(F)F)n12 (stereo not shown) [Example 98, N-[4-[8-amino-3-(trideuteriomethyl)-5-(trifluoromethyl)imidazo[1,5-a]pyrazin-1-yl]-3-fluoro-phenyl]-2-hydroxy-2-[3-(trifluoromethyl)phenyl]acetamide] | 26 to 50 | 
26 to 50 | [2H]C([2H])([2H])c1nc(-c2ccc(NC(=O)C(O)c3cccc(C(F)(F)F)c3)cc2F)c2c(N)ncc(C(F)(F)F)n12 (stereo not shown) [Example 99, N-[4-[8-amino-3-(trideuteriomethyl)-5-(trifluoromethyl)imidazo[1,5-a]pyrazin-1-yl]-3-fluoro-phenyl]-2-hydroxy-2-[3-(trifluoromethyl)phenyl]acetamide] | 101 to 250 | 
1 to 25 | [2H]C([2H])([2H])c1nc(-c2ccc(NC(=O)C(O)c3cccc(C(F)(F)F)c3)cc2F)c2c(N)ncc(Cl)n12 (stereo not shown) [Example 100, N-[4-[8-amino-5-chloro-3-(trideuteriomethyl)imidazo[1,5-a]pyrazin-1-yl]-3-fluoro-phenyl]-2-hydroxy-2-[3-(trifluoromethyl)phenyl]acetamide] |  | 1 to 25
1 to 25 | [2H]C([2H])([2H])c1nc(-c2ccc(NC(=O)C(O)c3cc(F)cc(F)c3)cc2F)c2c(N)ncc(Cl)n12 (stereo not shown) [Example 108, N-[4-[8-amino-5-chloro-3-(trideuteriomethyl)imidazo[1,5-a]pyrazin-1-yl]-3-fluoro-phenyl]-2-(3,5-difluoro-phenyl)-2-hydroxy-acetamide] |  | 1 to 25
1 to 25 | [2H]C([2H])([2H])c1nc(-c2ccc(NC(=O)C(O)c3cc(F)cc(C(F)(F)F)c3)cc2F)c2c(N)ncc(C)n12 (stereo not shown) [Example 110, N-[4-[8-amino-5-methyl-3-(trideuteriomethyl)imidazo[1,5-a]pyrazin-1-yl]-3-fluoro-phenyl]-2-[3-fluoro-5-(trifluoromethyl)phenyl]-2-hydroxy-acetamide] | 1 to 25 | 
1 to 25 | [2H]C([2H])([2H])c1nc(-c2ccc(NC(=O)C(O)c3cc(F)cc(C(F)(F)F)c3)cc2F)c2c(N)ncc(C)n12 (stereo not shown) [Example 111, N-[4-[8-amino-5-methyl-3-(trideuteriomethyl)imidazo[1,5-a]pyrazin-1-yl]-3-fluoro-phenyl]-2-[3-fluoro-5-(trifluoromethyl)phenyl]-2-hydroxy-acetamide] | 26 to 50 | 
51 to 100 | [2H]C([2H])([2H])c1nc(-c2ccc(NC(=O)C(O)c3cc(F)cc(C(F)(F)F)c3)cc2F)c2c(N)ncc(C(F)(F)F)n12 (stereo not shown) [Example 113, N-[4-[8-amino-3-(trideuteriomethyl)-5-(trifluoromethyl)imidazo[1,5-a]pyrazin-1-yl]-3-fluoro-phenyl]-2-[3-fluoro-5-(trifluoromethyl)phenyl]-2-hydroxy-acetamide] | 101 to 250 | 
1 to 25 | [2H]C([2H])([2H])c1nc(-c2ccc(NC(=O)C(O)c3cc(F)cc(C(F)(F)F)c3)cc2F)c2c(N)ncc(Cl)n12 (stereo not shown) [Example 114, N-[4-[8-amino-5-chloro-3-(trideuteriomethyl)imidazo[1,5-a]pyrazin-1-yl]-3-fluoro-phenyl]-2-[3-fluoro-5-(trifluoromethyl)phenyl]-2-hydroxy-acetamide] | 1 to 25 | 
1 to 25 | [2H]C([2H])([2H])c1nc(-c2ccc(NC(=O)C(O)c3cc(F)cc(C(F)(F)F)c3)cc2F)c2c(N)ncc(Cl)n12 (stereo not shown) [Example 115, N-[4-[8-amino-5-chloro-3-(trideuteriomethyl)imidazo[1,5-a]pyrazin-1-yl]-3-fluoro-phenyl]-2-[3-fluoro-5-(trifluoromethyl)phenyl]-2-hydroxy-acetamide] | 26 to 50 | 

The next lines start with the compound.

Compound | IC50 [1] [nM] | IC50 [2] [nM] | IC50 ([2]; 2 h) [nM]
[2H]C([2H])([2H])c1nc(-c2ccc(NC(=O)C(O)c3cc(F)cc(F)c3)cc2F)c2c(N)nc(C)cn12 (stereo not shown) [Example 102, N-[4-[8-amino-6-methyl-3-(trideuteriomethyl)imidazo[1,5-a]pyrazin-1-yl]-3-fluoro-phenyl]-2-(3,5-difluoro-phenyl)-2-hydroxy-acetamide] | 1 to 25 | 1 to 25 | 
[2H]C([2H])([2H])c1nc(-c2ccc(NC(=O)C(O)c3cc(F)cc(F)c3)cc2F)c2c(N)nc(C)cn12 (stereo not shown) [Example 103, N-[4-[8-amino-6-methyl-3-(trideuteriomethyl)imidazo[1,5-a]pyrazin-1-yl]-3-fluoro-phenyl]-2-(3,5-difluoro-phenyl)-2-hydroxy-acetamide] | 1 to 25 | 251 to 500 | 
[2H]C([2H])([2H])c1nc(-c2ccc(NC(=O)C(O)c3cc(F)cc(F)c3)cc2F)c2c(N)ncc(C)n12 (stereo not shown) [Example 104, N-[4-[8-amino-5-methyl-3-(trideuteriomethyl)imidazo[1,5-a]pyrazin-1-yl]-3-fluoro-phenyl]-2-(3,5-difluoro-phenyl)-2-hydroxy-acetamide] | 1 to 25 | 1 to 25 | 
[2H]C([2H])([2H])c1nc(-c2ccc(NC(=O)C(O)c3cc(F)cc(F)c3)cc2F)c2c(N)ncc(C)n12 (stereo not shown) [Example 105, N-[4-[8-amino-5-methyl-3-(trideuteriomethyl)imidazo[1,5-a]pyrazin-1-yl]-3-fluoro-phenyl]-2-(3,5-difluoro-phenyl)-2-hydroxy-acetamide] | 1 to 25 | 26 to 50 | 
[2H]C([2H])([2H])c1nc(-c2ccc(NC(=O)C(O)c3cc(F)cc(F)c3)cc2F)c2c(N)ncc(C(F)(F)F)n12 (stereo not shown) [Example 106, N-[4-[8-amino-3-(trideuteriomethyl)-5-(trifluoromethyl)imidazo[1,5-a]pyrazin-1-yl]-3-fluoro-phenyl]-2-(3,5-difluoro-phenyl)-2-hydroxy-acetamide] | 1 to 25 | 1 to 25 | 
[2H]C([2H])([2H])c1nc(-c2ccc(NC(=O)C(O)c3cc(F)cc(F)c3)cc2F)c2c(N)ncc(C(F)(F)F)n12 (stereo not shown) [Example 107, N-[4-[8-amino-3-(trideuteriomethyl)-5-(trifluoromethyl)imidazo[1,5-a]pyrazin-1-yl]-3-fluoro-phenyl]-2-(3,5-difluoro-phenyl)-2-hydroxy-acetamide] | 1 to 25 | 26 to 50 | 
[2H]C([2H])([2H])c1nc(-c2ccc(NC(=O)C(O)c3cc(F)cc(C(F)(F)F)c3)cc2F)c2c(N)ncc(C(F)(F)F)n12 (stereo not shown) [Example 112, N-[4-[8-amino-3-(trideuteriomethyl)-5-(trifluoromethyl)imidazo[1,5-a]pyrazin-1-yl]-3-fluoro-phenyl]-2-[3-fluoro-5-(trifluoromethyl)phenyl]-2-hydroxy-acetamide] | 1 to 25 | 1 to 25 | 
[2H]C([2H])([2H])c1nc(-c2ccc(NC(=O)C(O)c3cc(F)cc(C(F)(F)F)c3)cc2F)c2c(N)nc(C)cn12 (stereo not shown) [Example 116, N-[4-[8-amino-6-methyl-3-(trideuteriomethyl)imidazo[1,5-a]pyrazin-1-yl]-3-fluoro-phenyl]-2-[3-fluoro-5-(trifluoromethyl)phenyl]-2-hydroxy-acetamide] | 1 to 25 | 1 to 25 | 
[2H]C([2H])([2H])c1nc(-c2ccc(NC(=O)C(O)c3cc(F)cc(C(F)(F)F)c3)cc2F)c2c(N)nc(C)cn12 (stereo not shown) [Example 117, N-[4-[8-amino-6-methyl-3-(trideuteriomethyl)imidazo[1,5-a]pyrazin-1-yl]-3-fluoro-phenyl]-2-[3-fluoro-5-(trifluoromethyl)phenyl]-2-hydroxy-acetamide] | 51 to 100 | 251 to 500 | 
[2H]C([2H])([2H])c1nc(-c2ccc(NC(=O)C(O)c3cccc(F)c3)c(F)c2)c2c(N)ncc(C)n12 (stereo not shown) [Example 122, N-[4-[8-amino-5-methyl-3-(trideuteriomethyl)imidazo[1,5-a]pyrazin-1-yl]-2-fluoro-phenyl]-2-(3-fluorophenyl)-2-hydroxy-acetamide] | 26 to 50 | 251 to 500 | 
